For data set [1], the target named is T1, Human immunodeficiency virus type 1 integrase (Human immunodeficiency virus 1, UniProt Q7ZJM1). As to the kind of experiment: Inhibition of HIV1 integrase 3'-end processing activity.
The target in data set [2] is T1, Human immunodeficiency virus type 1 integrase. As to the kind of experiment: Inhibition of HIV1 integrase strand transfer activity.
Data set [3] in a line: Cytotoxicity against human HCT116 cells. In kind it is cell-based, HCT-116.
Another data set deals with HCT-116. As to the kind of experiment: Cytotoxicity against human HCT116 cells at 20 uM. In kind it is cell-based. The conditions noted are these: hct-116, 20 µM.
Data set [4] is described as follows: Cytotoxicity against human MDA-MB-435 cells. In kind it is cell-based.
A further data set deals with MDA-MB-435. Nature of the data set: Cytotoxicity against human MDA-MB-435 cells at 20 uM. In kind it is cell-based. Conditions: mda-mb-435, 20 µM.
In data set [5] the target is Human immunodeficiency virus type 1 integrase (Human immunodeficiency virus 1) (UniProt Q7ZJM1). Nature of the data set: Inhibition of HIV1 integrase 3'-end processing activity at 100 uM.
Human immunodeficiency virus type 1 integrase (Human immunodeficiency virus 1), sequence (Q7ZJM1 as listed by the source): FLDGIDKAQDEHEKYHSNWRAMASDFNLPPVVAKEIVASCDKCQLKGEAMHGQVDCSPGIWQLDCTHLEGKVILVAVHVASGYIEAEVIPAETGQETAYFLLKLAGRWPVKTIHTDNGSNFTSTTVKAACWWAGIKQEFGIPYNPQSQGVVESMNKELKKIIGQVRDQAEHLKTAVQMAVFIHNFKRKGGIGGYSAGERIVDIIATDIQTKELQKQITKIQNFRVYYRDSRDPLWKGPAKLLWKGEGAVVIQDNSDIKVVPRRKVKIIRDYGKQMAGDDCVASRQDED
Data set [6] has the same target. Nature of the data set: Inhibition of HIV1 integrase strand transfer activity at 100 uM.

Calls of active or inactive are those of the source. The rule behind the calls is not given here. Some results are limits rather than exact numbers.

T1 sequence (Q7ZJM1 whole entry): as the sequence (Q7ZJM1 as listed by the source) above

Take `O=C(CSc1nnc(Cc2ccccc2)n1C1CCCCC1)NNC(=O)c1ccccc1O`: the IC50 in data set [1] is 21 µM; in data set [2] it was 17 µM. Moreover, the CC50 in data set [3] and in data set [4] was above 20 µM each time. Besides, the figures for the Activity with HCT-116 and in the data set with MDA-MB-435 were 11% and 5%, respectively.
`O=C(CSc1nnc(-c2ccncc2)n1-c1ccccc1)N/N=C/c1ccccc1O`: the concentration for half-maximal inhibition (IC50) in data set [1] and in data set [2] was above 100 µM throughout. The CC50 in data set [3] and in data set [4] was above 20 µM in each case. Besides, the Activity in the data set on HCT-116 was found to be 40%; in the data set with MDA-MB-435 it was 44%. Besides, the result in data set [5] and in data set [6] was inactive.
For the molecule `Cn1c(SCC(=O)NNC(=O)c2ccccc2O)nnc1-c1ccccc1`, the IC50 in data set [1] was determined as 64 µM; in data set [2], 58 µM. Further, the CC50 in data set [3] and in data set [4] was above 20 µM throughout. For the same molecule, the Activity is 39% in the data set with HCT-116 and 32% in the data set on MDA-MB-435.
In the case of `O=C(CSc1nnnn1-c1ccccc1)NNC(=O)c1ccc(O)cc1O`, the IC50 in data set [1] was found to be 68 µM; in data set [2], 61 µM. Besides, the CC50 in data set [3] and in data set [4] was above 20 µM in each case. The Activity in the data set on HCT-116 is recorded as 15%; in the data set on MDA-MB-435, 3%.
As to `Cc1cc(C)nc(SCc2nnc(SCC(=O)NNC(=O)c3ccccc3O)n2C)n1`, the IC50 in data set [1] and in data set [2] was above 100 µM each time. Besides, the CC50 in data set [3] and in data set [4] was above 20 µM each time. In addition, the Activity in the data set with HCT-116 worked out at 21%; in the data set with MDA-MB-435, 16%.
For `O=C(CSc1nnc(Cc2ccccc2)n1-c1cccc(Cl)c1)NNC(=O)c1ccccc1O`, the figures for the IC50 in data set [1] and in data set [2] were 9 µM and 8 µM, respectively. Further, the CC50 in data set [3] and in data set [4] was above 20 µM each time. In addition, the Activity in the data set with HCT-116 is 11%; with MDA-MB-435 it was 5%.
In the case of `COc1ccccc1-n1c(SCC(=O)NNC(=O)c2ccccc2O)nnc1-c1ccccc1O`, the figures for the IC50 in data set [1] and in data set [2] were 8 µM and 6 µM, respectively. Moreover, the CC50 in data set [3] is 20 µM; in data set [4], above 20 µM. This molecule also returned an Activity in the data set on MDA-MB-435 of 40%.
Consider `O=C(CSc1nnc(-c2ccc(Cl)cc2)n1-c1ccccc1)NNC(=O)c1ccccc1O`, for which the IC50 in data set [1] was found to be 11 µM; in data set [2] it was 5 µM. Moreover, the CC50 in data set [3] and in data set [4] was above 20 µM each time. The Activity is recorded as 36% with HCT-116 and 30% in the data set on MDA-MB-435.
`Cc1ccc(-n2c(SCC(=O)NNC(=O)c3ccccc3O)nnc2-c2ccccc2O)cc1`: the IC50 is 5 µM in data set [1] and 3 µM in data set [2]. Besides, the CC50 in data set [3] and in data set [4] was above 20 µM each time. The Activity stood at 26% with HCT-116 and 12% in the data set with MDA-MB-435.
With `O=C(CSc1nnc(-c2ccccc2)n1Cc1ccccc1)NNC(=O)c1ccccc1O`, the concentration for half-maximal inhibition (IC50) in data set [1] came out at 21 µM; in data set [2], 9 µM. For the same molecule, the CC50 in data set [3] and in data set [4] was above 20 µM throughout. Moreover, the values for the Activity in the data set on HCT-116 and in the data set with MDA-MB-435 were 34% and 22%, respectively.
Take `COc1ccc(-n2c(Cc3ccccc3)nnc2SCC(=O)NNC(=O)c2ccccc2O)cc1`: the IC50 came to 18 µM in data set [1] and 17 µM in data set [2]. For the same molecule, the CC50 in data set [3] and in data set [4] was above 20 µM in each case. Further, the Activity with HCT-116 is 0%; in the data set on MDA-MB-435, 10%.
As to `O=C(CSc1nnc(-c2ccc(Cl)cc2)n1-c1ccccc1)N/N=C/c1ccccc1C(=O)O`, the IC50 in data set [1] and in data set [2] was above 100 µM throughout. The cytotoxic concentration (CC50) in data set [3] and in data set [4] was above 20 µM in each case. The Activity was 0% with HCT-116 and 8% with MDA-MB-435. The outcome in data set [5] and in data set [6] was inactive.
`Cc1ccc(-n2c(SCC(=O)NNC(=O)c3ccccc3O)nnc2-c2ccccc2)cc1`: the half-maximal inhibitory concentration (IC50) in data set [1] was 23 µM; in data set [2], 12 µM. Moreover, the figures for the CC50 in data set [3] and in data set [4] were 15 µM and 20 µM, respectively.
As for `O=C(CSc1nnc(-c2ccncc2)n1-c1ccc(F)cc1)NNC(=O)c1ccccc1O`, the IC50 in data set [1] was determined as 49 µM; in data set [2], 31 µM. Also, the CC50 in data set [3] and in data set [4] was above 20 µM throughout. Also, the Activity in the data set with HCT-116 was 22%; in the data set with MDA-MB-435, 14%.
Take `COc1ccc(-c2nnc(SCC(=O)NNC(=O)c3ccccc3O)n2-c2ccccc2)cc1OC`: the results for the IC50 in data set [1] and in data set [2] were 22 µM and 21 µM, respectively. Further, the CC50 in data set [3] and in data set [4] was above 20 µM each time. For the same molecule, the Activity turned out to be 24% in the data set with HCT-116 and 13% with MDA-MB-435.
For the molecule `O=C(CSc1nnc(-c2ccccc2O)n1Cc1ccccc1)NNC(=O)c1ccccc1O`, the IC50 in data set [1] worked out at 15 µM; in data set [2], 9 µM. Further, the CC50 in data set [3] and in data set [4] was above 20 µM throughout. The Activity in the data set with HCT-116 stood at 8%; with MDA-MB-435 it was 15%.
As to `Cc1cc(C)nc(SCc2nnc(SCC(=O)NNC(=O)c3ccccc3O)n2-c2ccccc2)n1`, the IC50 in data set [1] turned out to be 51 µM; in data set [2], 27 µM. Also, the CC50 in data set [3] and in data set [4] was above 20 µM throughout. The Activity with HCT-116 is 0%; in the data set on MDA-MB-435, 3%.
